The source of these data is patent US9862684B2, “Modulation of K2P channels” (The Regents of the University of California, priority 2013, dated 2018).

The target in test [1] is T1, K2P2.1 (TREK-1)-3G (Mus musculus, UniProt P97438, D309G/I307G).
T1 sequence (P97438 1-426 I307G/D309G): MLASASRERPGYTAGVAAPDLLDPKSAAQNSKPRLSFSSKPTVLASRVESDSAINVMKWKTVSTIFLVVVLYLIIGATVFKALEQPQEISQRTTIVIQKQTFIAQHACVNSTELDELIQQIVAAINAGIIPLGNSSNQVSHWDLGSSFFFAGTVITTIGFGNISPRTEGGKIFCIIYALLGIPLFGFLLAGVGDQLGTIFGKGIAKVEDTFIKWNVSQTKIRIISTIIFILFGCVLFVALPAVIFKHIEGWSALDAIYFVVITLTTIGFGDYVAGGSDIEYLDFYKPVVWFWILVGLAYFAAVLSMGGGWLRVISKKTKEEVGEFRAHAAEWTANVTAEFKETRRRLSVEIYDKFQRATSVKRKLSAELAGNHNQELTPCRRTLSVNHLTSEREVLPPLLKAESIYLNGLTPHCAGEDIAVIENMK
Kind of test: Two-electrode voltage clamp, Xenopus oocytes, triple glycine mutant uncoupling Ct. The class given is cell-based, Murine. Particulars: 3G mutant. As to the method:
(§1) I-V curves were measured by two-electrode voltage clamp of Xenopus oocytes in b, 90 mM [K^+]o. or c-e, 2 mM [K^+]o. […] Data (were measured at 20 mV (90 mM [K^+]o) or 0 mV (2 mM [K^+]o), normalized to basal channel activity, and fitted to the Hill equation. Error bars indicate s.e., n≧6, N≧2.
(§2) Murine K2P channels were cloned into pGEMHE/pMO {Bagriantsev, 2011}, IRES-GFP (Invitrogen), or pYES2-MET25 (high copy 2μ, URA3) {Minor, 1999} for expression in oocytes, HEK-293T cells, and yeast, respectively, using standard molecular biology procedures, and verified by DNA sequencing.
(§3) Two-electrode voltage clamp recordings were performed from defolliculated stage V-VI Xenopus oocytes 24-48 hours after injection with 0.015-6.0 ng cRNA, using microelectrodes (0.3-3.0 MΩ) filled with 3M KCl. Data was acquired using the GeneClamp 500B (MDS Analytical Technologies) amplifier controlled by the pClamp software (Molecular Devices), and digitized at 1 kHz using Digidata 1332A (MDS Analytical Technologies). Recording solutions (mM): 2K (96 NaCl, 2 KCl, 1.8 CaCl2, 2 MgCl2), 90K (90 KCl, 8 NaCl, 1.8 CaCl2, 2 MgCl2), were buffered 5 mM HEPES pH 7.4. For K2P recordings, currents we elicited by a 1 second long ramp from −150 to +50 mV from a holding potential of −80 mV (2K), or −100 to +50 mV from a holding potential of 0 mV (90K). […]
For orientation: In two-electrode clamp one electrode senses voltage and the other passes current.

For test [2], the target named is T2, K2P2.1 (TREK-1)-3G (Mus musculus, UniProt P97438, I307G/D309G).
T2 sequence (P97438 1-426 I307G/D309G): T1 sequence (P97438 1-426 I307G/D309G)
Described as above. It counts as cell-based, Murine. The settings on record: 3G mutant. How it is done: as §1, §2, §3

By EC50 is commonly meant the concentration that produces a half-maximal response. Read a low EC50 as greater potency. With `CC1(C)c2cc(Cl)ccc2N(CCc2nnn[nH]2)c2ccc(Cl)cc21` [ML67-33, 2,7-dichloro-9,9-dimethyl-10-[2-(1H-tetrazol-5-yl)ethyl]acridine], in test [1], the half-maximal effective concentration (EC50) came to 49.4 ± 0.1 µM. Further, the “Emax (fold)” value in test [2] is given as 12.9±1.0 fold.
